# Legend:
# 22Rv1 tumors = conditions: cited from earlier work
# [1] = tested on: PSA expression in LN95 cells (AR activity); experiment: PSA ELISA of conditioned medium, LN95 cells; assay type: cell-based, human
# AR nuclear localization = conditions: cited from earlier work
# AR = experiment: Western blot with nucleocytoplasmic fractionation, AR level; assay type: cell-based, human; conditions: 10 nM, 20 h, C4-2, LN95, and 22Rv1
# [2] = tested on: PSA expression in 22Rv1 cells (AR activity); experiment: PSA ELISA of conditioned medium, 22Rv1 cells; assay type: cell-based, human
# PC-3 cells = experiment: Cell proliferation assay, PC-3; assay type: cell-based, human; conditions: PC-3, 10 μM, repeat experiment (Supplemental Fig. 2)
# [3] = tested on: PSA expression in C4-2 cells (AR activity); experiment: PSA ELISA of conditioned medium, C4-2 cells; assay type: cell-based, human; conditions: C4-2, 48 h
# DU145 cells = experiment: Cell proliferation assay, DU145; assay type: cell-based, human; conditions: DU145, 10 μM, repeat experiment (Supplemental Fig. 2)
# 22Rv1 xenograft tumor = 22Rv1 xenograft tumor study in castrated mice; conditions: 10 mg/kg i.p. every day; (+)-JJ-74-138 compared to enzalutamide p < 0.05
# [4] = LN95, 48 h, DHT 0-1000 nM with 10 μM compound
# [5] = 22Rv1, 48 h, DHT 0-1000 nM with 10 μM compound
# [6] = DHT 0-1000 nM with 10 μM (+)-JJ-74-138 or 1 or 10 μM enzalutamide
smiles,measurement,setting,value
CC(C)(c1ccc(OCC(O)CO)cc1)c1ccc(OCC(O)CCl)cc1 (stereo not drawn) [EPI-001],sensitivity of 22Rv1 tumors,22Rv1 tumors,resistant
CC/C(=C(\c1ccccc1)c1ccc(OCCN(C)C)cc1)c1ccccc1 [tamoxifen],PSA expression,[1]; LN95 cells (Supplemental Fig. 3),did not affect PSA expression
"O=C(CSCc1cnoc1)N1CCN(c2ccccc2)CC1 [IMTPPE, 2-[(isoxazol-4-ylmethyl)thio]-1-(4-phenylpiperazin-1-yl)ethanone]",androgen-independent AR nuclear localization,AR nuclear localization,inhibited androgen-independent AR nuclear localization
C[C@]1(O)CC[C@H]2[C@@H]3CCC4=CC(=O)CCC4=C3C=C[C@@]21C [R1881],amount of total AR and nuclear AR level,AR,"increased the amount of total AR, particularly the nuclear AR level"
CNC(=O)c1ccc(N2C(=S)N(c3ccc(C#N)c(C(F)(F)F)c3)C(=O)C2(C)C)cc1F [enzalutamide],inhibition at 10 µM,"[1]; Homo sapiens, 48 h, read-out: inhibition of PSA levels",~20%
same,DHT-stimulated PSA expression,"[1]; LN95, 10 μM, with DHT (Fig. 3A)",effectively inhibit DHT-stimulated PSA expression
same,increase of EC50 of DHT induction of PSA,[1]; [4],~ 10 fold
same,maximal PSA induction by high DHT dosages,[1]; [4],alleviated by high doses of DHT
same,DHT-stimulated PSA expression,"[2]; 22Rv1, 10 μM, with DHT (Fig. 3A)",effectively inhibit DHT-stimulated PSA expression
same,increase of EC50 of DHT induction of PSA,[2]; [5],~ 10 fold
same,maximal PSA induction by high DHT dosages,[2]; [5],alleviated by high doses of DHT
same,cell growth,PC-3 cells,minimal inhibitory effect
same,increase of EC50 of DHT induction of PSA,[3]; [6],~ 10 fold
same,maximal PSA induction by high DHT dosages,[3]; [6],alleviated by high doses of DHT
same,inhibition at 10 µM,"[3]; Homo sapiens, read-out: inhibition of PSA levels",~70%
same,cell growth,DU145 cells,minimal inhibitory effect
same,"survival (Kaplan-Meier, ad hoc analysis)",22Rv1 xenograft tumor,did not differ from the vehicle control
